Measurements reported in US20110212853A1, “NOVEL DIAGNOSTIC METHOD” (PROBIODRUG AG, priority 2010, published 2011).

Assays:
RAW 264.7 cells = experiment: mMCP-1 N1pE/mMCP-1 ratio by ELISA in LPS stimulated RAW 264.7 treated with QCI; type: cell-based, mouse; conditions: RAW 264.7, 10 ng/ml LPS, 24 h, different QCI concentrations
Protocol: To capture mouse MCP-1, commercially available polyclonal antiserum rabbit anti mJE (Peprotech, Hamburg, Germany) as capture antibody which specifically binds mouse MCP-1 was diluted in PBS to 500 ng/ml and immobilized in polystyrene 96-well microtitre plates over 4-7 nights at 4° C. Thereafter, blocking occurred for 2 hours at room temperature with ELISA Blocker (Thermo Fisher Scientific, Waltham, USA). For preparation of the standard curve recombinant mMCP-1 was incubated with mouse Glutaminyl Cyclase (QC) in order to obtain mMCP-1 N1pE. The recombinant mMCP-1 N1pE standard peptide was serially diluted with ELISA Blocker from 1950 pg/ml down to 19.5 pg/ml and added to the wells in duplicate. Two wells filled with ELISA Blocker represent the standard curve value 0 pg/ml. After an incubation period of 2 hours at room temperature, plates were washed at least three times with TBS-T. For detection of mMCP-1 N1pE, the MCP-1 N1pE antibody clone 348-2C9 together with HRP-conjugated anti mouse antibody were both diluted in ELISA Blocker to final concentrations of 500 ng/ml. […] Absorption at 450/540 nm was determined by a Tecan Sunrise plate reader.
In order to analyse the effect of QCI on the ratio of mouse MCP-1 N1pE/mouse MCP-1, the mouse macrophage cell line RAW 264.7 was stimulated with LPS in the absence or presence of increasing concentrations of the QC inhibitor QCI. […] After 24 h cell culture supernatants were analyzed according to the protocol in Example 9. […]

recombinant human QC = recombinant human QC (Homo sapiens, UniProt Q16769); experiment: Chemotactic potency of human MCP-1 in absence or presence of a QC-inhibitor (QC-mediated pGlu formation, then DP4 cleavage); type: biochemical; conditions: 10 μM inhibitor, FIG. 12
Sequence of recombinant human QC (Q16769 29-361): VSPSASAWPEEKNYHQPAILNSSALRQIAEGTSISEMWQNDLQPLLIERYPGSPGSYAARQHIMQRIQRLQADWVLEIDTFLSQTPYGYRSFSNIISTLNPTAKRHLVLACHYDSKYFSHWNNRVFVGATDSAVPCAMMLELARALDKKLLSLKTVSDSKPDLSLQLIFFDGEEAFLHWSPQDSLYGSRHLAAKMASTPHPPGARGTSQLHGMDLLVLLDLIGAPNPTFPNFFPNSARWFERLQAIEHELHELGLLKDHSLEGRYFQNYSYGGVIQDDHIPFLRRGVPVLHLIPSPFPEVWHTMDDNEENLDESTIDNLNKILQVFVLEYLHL
Protocol: Recombinant human MCP-1(1-76) (SEQ ID NO: 1) starting with an N-terminal glutamine (Peprotech) was dissolved in 25 mM Tris/HCl pH 7.6 in a concentration of 10 μg/ml. The MCP-1 solution was either pre-incubated with recombinant human QC (0.0006 mg/ml) for 3 h at 30° C. and subsequently incubated with recombinant human DP4 (0.0012 mg/ml) at 30° C. or incubated with DP4 without prior QC application. In addition, the incubation of Gln^1-MCP-1 with recombinant human QC was carried out in the presence of 10 μM of 1-(3-(1H-imidazol-1-yl)propyl)-3-(3,4-dimethoxyphenyl)thiourea hydrochloride. Resulting DP4 cleavage products were analyzed using Maldi-TOF mass spectrometry after 0 min, 15 min, 30 min, 1 h, 2 h and 4 h.
The chemotaxis assay was performed using 24 well TransWell plates with a pore size of 5 μm (Corning). THP-1 cells were suspended in RPMI1640 in a concentration of 1*10^6 cells/100 μl and applied in 100 μl aliquots to the upper chamber. Cells were allowed to migrate towards the chemoattractant for 2 h at 37° C. […] Afterwards, cells migrated to the lower chamber were counted using a cell counter system (Schärfe System). The chemotactic index was calculated by dividing cells migrated to the stimulus from cells migrated to the negative control. […]

COc1ccc(NC(=S)NCCCn2ccnc2)cc1OC.Cl [QCI, 1-(3-(1H-imidazol-1-yl)propyl)-3-(3,4-dimethoxyphenyl)thiourea hydrochloride]
amount of mMCP-1 N1pE (RAW 264.7 cells): reduced by QCI in a concentration dependent manner
amount of total mMCP-1 (RAW 264.7 cells): remains unaffected
ratio of mMCP-1 N1pE/mMCP-1 (RAW 264.7 cells): decreases with increasing inhibitor concentrations
pGlu-formation of Gln^1-MCP-1 by QC (recombinant human QC): prevents pGlu-formation
